Data published in ChEMBL document CHEMBL1201861, “Genomics of Drug Sensitity in Cancer screening data, Wellcome Trust Sanger Institute”.

Legend:
CaR-1 = test: cells; assay type: functional, cell-based; settings: Homo sapiens;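 further: growth inhibition of human CaR-1 cancer cells, read out with a cell viability assay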
Description: SANGER: Inhibition of human CaR-1 cell growth in a cell viability assay.

D-392MG = test: cells; assay type: functional, cell-based; settings: Homo sapiens
DMS-273 = test: cells; assay type: functional, cell-based; settings: Homo sapiens
Description: SANGER: Inhibition of human DMS-273 cell growth in a cell viability assay.

Daoy = test: cells; assay type: functional, cell-based; settings: Homo sapiens;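 further: daoy cell growth inhibition, read out as cell viability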
Description: SANGER: Inhibition of human Daoy cell growth in a cell viability assay.

EFO-27 = test: cells; assay type: functional, cell-based; settings: Homo sapiens;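 further: growth inhibition of EFO-27 cells, read out with a cell viability assay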
Description: SANGER: Inhibition of human EFO-27 cell growth in a cell viability assay.

FaDu = test: cells; assay type: functional, cell-based; settings: Homo sapiens;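 further: cell viability readout of growth inhibition in FaDu cells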
Description: SANGER: Inhibition of human FADU cell growth in a cell viability assay.

GAMG = test: cells; assay type: functional, cell-based; settings: Homo sapiens;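 further: cell growth inhibition measured by a viability assay in the GAMG human cell line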
Description: SANGER: Inhibition of human GAMG cell growth in a cell viability assay.

HCC1569 = test: cells; assay type: functional, cell-based; settings: Homo sapiens;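 further: growth inhibition of human HCC1569 cells, read out with a cell viability assay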
Description: SANGER: Inhibition of human HCC1569 cell growth in a cell viability assay.

HGC-27 = test: cells; assay type: functional, cell-based; settings: Homo sapiens;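 further: growth inhibition of human HGC-27 cells, read out in a cell viability assay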
Description: SANGER: Inhibition of human HGC-27 cell growth in a cell viability assay.

HLE = test: cells; assay type: functional, cell-based; settings: Homo sapiens;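 further: growth inhibition of human HLE cells, read out by a cell viability assay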
Description: SANGER: Inhibition of human HLE cell growth in a cell viability assay.

HT1197 = test: cells; assay type: functional, cell-based, HT-1197; settings: Homo sapiens
Description: SANGER: Inhibition of human HT-1197 cell growth in a cell viability assay.

IMR-5 = test: cells; assay type: functional, cell-based; settings: Homo sapiens;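 further: growth inhibition of human IMR-5 cells, read out with a cell viability assay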
Description: SANGER: Inhibition of human IMR-5 cell growth in a cell viability assay.

KARPAS-422 = test: cells; assay type: functional, cell-based; settings: Homo sapiens
Description: SANGER: Inhibition of human KARPAS-422 cell growth in a cell viability assay.

Kasumi 1 = test: cells; assay type: functional, cell-based; settings: Homo sapiens;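 further: growth inhibition of human Kasumi-1 cells, read out by a cell viability assay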
Description: SANGER: Inhibition of human KASUMI-1 cell growth in a cell viability assay.

KMS-12-PE = test: cells; assay type: functional, cell-based; settings: Homo sapiens;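 further: growth inhibition of human KMS-12-PE cells, measured with a cell viability assay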
Description: SANGER: Inhibition of human KMS-12-PE cell growth in a cell viability assay.

KOSC-2 = test: cells; assay type: functional, cell-based; settings: Homo sapiens;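 further: growth inhibition of KOSC-2 cells, read out by a cell viability assay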
Description: SANGER: Inhibition of human KOSC-2 cell growth in a cell viability assay.

KYSE-520 cell line = test: cells; assay type: functional, cell-based; settings: Homo sapiens;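 further: growth inhibition of human KYSE-520 cells, read out with a viability assay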
Description: SANGER: Inhibition of human KYSE-520 cell growth in a cell viability assay.

LN-405 = test: cells; assay type: functional, cell-based; settings: Homo sapiens
Description: SANGER: Inhibition of human LN-405 cell growth in a cell viability assay.

LP-1 = test: cells; assay type: functional, cell-based; settings: Homo sapiens;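 further: growth inhibition of human LP-1 cells, with the read-out taken from a cell viability assay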
Description: SANGER: Inhibition of human LP-1 cell growth in a cell viability assay.

LoVo = test: cells; assay type: functional, cell-based; settings: Homo sapiens;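 further: growth inhibition of human LoVo cells, read out with a cell viability assay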
Description: SANGER: Inhibition of human LoVo cell growth in a cell viability assay.

MC-CAR = test: cells; assay type: functional, cell-based; settings: Homo sapiens;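 further: growth inhibition of the human MC-CAR cell line, read out by a cell viability assay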
Description: SANGER: Inhibition of human MC-CAR cell growth in a cell viability assay.

MDA-MB-415 = test: cells; assay type: functional, cell-based; settings: Homo sapiens
NCCIT = test: SANGER: Inhibition of human NCCIT cell growth in a cell viability assay.; assay type: functional, cell-based
NCI-H1522 = test: cells; assay type: functional, cell-based; settings: Homo sapiens;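 further: growth inhibition of NCI-H1522 cells, read out with a cell viability assay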
Description: SANGER: Inhibition of human NCI-H1522 cell growth in a cell viability assay.

NCI-H1623 = test: cells; assay type: functional, cell-based; settings: Homo sapiens;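 further: cell viability assay used as the read-out for growth inhibition of NCI-H1623 cells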
Description: SANGER: Inhibition of human NCI-H1623 cell growth in a cell viability assay.

NCI-H1792 = test: cells; assay type: functional, cell-based; settings: Homo sapiens;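 further: growth inhibition of human NCI-H1792 cells, read out as cell viability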
Description: SANGER: Inhibition of human NCI-H1792 cell growth in a cell viability assay.

NCI-H1793 = test: cells; assay type: functional, cell-based; settings: Homo sapiens;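 further: cell growth inhibition, read out by a cell viability assay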
Description: SANGER: Inhibition of human NCI-H1793 cell growth in a cell viability assay.

NCI-H1882 = test: cells; assay type: functional, cell-based; settings: Homo sapiens;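 further: growth inhibition of the cell line, determined with a viability assay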
Description: SANGER: Inhibition of human NCI-H1882 cell growth in a cell viability assay.

NCI-H2087 = test: cells; assay type: functional, cell-based; settings: Homo sapiens;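 further: growth inhibition determined with a cell viability readout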
Description: SANGER: Inhibition of human NCI-H2087 cell growth in a cell viability assay.

NCI-H2141 = test: cells; assay type: functional, cell-based; settings: Homo sapiens;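 further: growth inhibition of human NCI-H2141 cells, read out with a cell viability assay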
Description: SANGER: Inhibition of human NCI-H2141 cell growth in a cell viability assay.

NCI-H2452 = test: cells; assay type: functional, cell-based; settings: Homo sapiens;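 further: growth inhibition of NCI-H2452 cells, read out with a cell viability assay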
Description: SANGER: Inhibition of human NCI-H2452 cell growth in a cell viability assay.

NCI-H345 = test: cells; assay type: functional, cell-based; settings: Homo sapiens;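 further: growth inhibition of NCI-H345 cells measured with a cell viability assay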
Description: SANGER: Inhibition of human NCI-H345 cell growth in a cell viability assay.

NCI-H716 = test: cells; assay type: functional, cell-based; settings: Homo sapiens;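 further: growth inhibition of human NCI-H716 cells, measured by a cell viability assay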
Description: SANGER: Inhibition of human NCI-H716 cell growth in a cell viability assay.

PANC-03-27 = test: cells; assay type: functional, cell-based; settings: Homo sapiens
Description: SANGER: Inhibition of human PANC-03-27 cell growth in a cell viability assay.

RPMI-6666 = test: cells; assay type: functional, cell-based; settings: Homo sapiens
Description: SANGER: Inhibition of human RPMI-6666 cell growth in a cell viability assay.

RT-112 = test: cells; assay type: functional, cell-based; settings: Homo sapiens
Description: SANGER: Inhibition of human RT-112 cell growth in a cell viability assay.

SIG-M5 = test: cells; assay type: functional, cell-based; settings: Homo sapiens;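 further: cell viability assay read-out, measuring how strongly growth of cultured human SIG-M5 cells is inhibited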
Description: SANGER: Inhibition of human SIG-M5 cell growth in a cell viability assay.

SIMA = test: cells; assay type: functional, cell-based; settings: Homo sapiens;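 further: growth inhibition of SIMA cells, measured with a cell viability readout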
Description: SANGER: Inhibition of human SIMA cell growth in a cell viability assay.

SJRH30 = test: cells; assay type: functional, cell-based; settings: Homo sapiens;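 further: growth inhibition of human SJRH30 cells, read out with a cell viability assay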
Description: SANGER: Inhibition of human SJRH30 cell growth in a cell viability assay.

SK-N-AS = test: cells; assay type: functional, cell-based; settings: Homo sapiens;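 further: growth inhibition of human SK-N-AS cells, measured with a cell viability assay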
Description: SANGER: Inhibition of human SK-N-AS cell growth in a cell viability assay.

SN12C = test: cells; assay type: functional, cell-based; settings: Homo sapiens;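 further: growth inhibition of human SN12C cells, measured by a cell viability assay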
Description: SANGER: Inhibition of human SN12C cell growth in a cell viability assay.

SNU-C1 = test: cells; assay type: functional, cell-based; settings: Homo sapiens;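 further: growth inhibition of SNU-C1 human cells, read out by a cell viability assay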
Description: SANGER: Inhibition of human SNU-C1 cell growth in a cell viability assay.

SW1088 = test: cells; assay type: functional, cell-based; settings: Homo sapiens;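 further: growth inhibition of human SW1088 cells, read out by a cell viability assay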
Description: SANGER: Inhibition of human SW1088 cell growth in a cell viability assay.

SW13 = test: cells; assay type: functional, cell-based; settings: Homo sapiens;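 further: IC50 is inhibition of SW13 cell growth, read out with a cell viability assay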
Description: SANGER: Inhibition of human SW13 cell growth in a cell viability assay.

SW1463 = test: cells; assay type: functional, cell-based; settings: Homo sapiens;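 further: growth inhibition of SW1463 cells, determined with a cell viability assay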
Description: SANGER: Inhibition of human SW1463 cell growth in a cell viability assay.

SW837 = test: cells; assay type: functional, cell-based; settings: Homo sapiens;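 further: growth inhibition of SW837 cells, determined with a cell viability assay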
Description: SANGER: Inhibition of human SW837 cell growth in a cell viability assay.

SW948 = test: cells; assay type: functional, cell-based; settings: Homo sapiens;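 further: growth inhibition of SW948 cells, read out with a cell viability assay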
Description: SANGER: Inhibition of human SW948 cell growth in a cell viability assay.

T84 = test: cells; assay type: functional, cell-based; settings: Homo sapiens;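 further: growth inhibition measured with a cell viability readout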
Description: SANGER: Inhibition of human T84 cell growth in a cell viability assay.

5637 = test: cells; assay type: functional, cell-based; settings: Homo sapiens
Description: SANGER: Inhibition of human 5637 cell growth in a cell viability assay.

639-V = test: cells; assay type: functional, cell-based; settings: Homo sapiens;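 further: growth inhibition of 639-V cells, read out with a cell viability assay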
Description: SANGER: Inhibition of human 639-V cell growth in a cell viability assay.

769-P = test: cells; assay type: functional, cell-based; settings: Homo sapiens
Description: SANGER: Inhibition of human 769-P cell growth in a cell viability assay.

786-0 = test: cells; assay type: functional, cell-based; settings: Homo sapiens
Description: SANGER: Inhibition of human 786-0 cell growth in a cell viability assay.

8505C = test: cells; assay type: functional, cell-based; settings: Homo sapiens
Description: SANGER: Inhibition of human 8505C cell growth in a cell viability assay.

A-427 = test: cells; assay type: functional, cell-based; settings: Homo sapiens;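 further: growth inhibition of human A-427 cells, read out by a cell viability assay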
Description: SANGER: Inhibition of human A427 cell growth in a cell viability assay.

ABC-1 = test: cells; assay type: functional, cell-based; settings: Homo sapiens;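 further: growth inhibition of human ABC-1 cells, read out by a cell viability assay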
Description: SANGER: Inhibition of human ABC-1 cell growth in a cell viability assay.

ARH-77 = test: cells; assay type: functional, cell-based; settings: Homo sapiens;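 further: growth inhibition of ARH-77 cells, read out by a cell viability assay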
Description: SANGER: Inhibition of human ARH-77 cell growth in a cell viability assay.

BXPC-3 = test: cells; assay type: functional, cell-based; settings: Homo sapiens;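 further: growth inhibition of human BxPC-3 cells, read out by a cell viability assay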
Description: SANGER: Inhibition of human BxPC-3 cell growth in a cell viability assay.

C-33-A = test: cells; assay type: functional, cell-based; settings: Homo sapiens;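 further: cell viability assay measuring growth inhibition of C-33-A cells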
Description: SANGER: Inhibition of human C-33-A cell growth in a cell viability assay.

CAL-27 = test: cells; assay type: functional, cell-based; settings: Homo sapiens;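 further: Viability-based readout, IC50 reflecting inhibition of CAL-27 cell growth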
Description: SANGER: Inhibition of human CAL-27 cell growth in a cell viability assay.

CAL-62 = test: cells; assay type: functional, cell-based; settings: Homo sapiens;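 further: growth inhibition of CAL-62 cells, read out with a cell viability assay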
Description: SANGER: Inhibition of human CAL-62 cell growth in a cell viability assay.

THP-1 = test: cells; assay type: functional, cell-based; settings: Homo sapiens;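 further: growth inhibition of THP-1 cells, read out via a cell viability assay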
Description: SANGER: Inhibition of human THP-1 cell growth in a cell viability assay.

UMC-11 = test: cells; assay type: functional, cell-based; settings: Homo sapiens;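 further: growth inhibition of UMC-11 cells, read out with a cell viability assay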
Description: SANGER: Inhibition of human UMC-11 cell growth in a cell viability assay.

WM-115 = test: cells; assay type: functional, cell-based; settings: Homo sapiens
Description: SANGER: Inhibition of human WM-115 cell growth in a cell viability assay.

WSU-NHL = test: cells; assay type: functional, cell-based; settings: Homo sapiens
Description: SANGER: Inhibition of human WSU-NHL cell growth in a cell viability assay.

CAPAN-1 = test: cells; assay type: functional, cell-based; settings: Homo sapiens
Description: SANGER: Inhibition of human CAPAN-1 cell growth in a cell viability assay.

In the case of `O=c1[nH]c2ccccc2n1C1CCN(Cc2ccc(-c3nc4cc5[nH]cnc5cc4nc3-c3ccccc3)cc2)CC1`, the IC50 (CaR-1) is reported as > 2560 nM, the IC50 (D-392MG) is reported as > 2560 nM and the IC50 (DMS-273) is reported as > 2560 nM. The IC50 (Daoy) was > 2560 nM, the IC50 (EFO-27) was > 2560 nM and the IC50 (FaDu) was > 2560 nM. For the same compound, the IC50 (GAMG) was > 2560 nM, the IC50 (HCC1569) was > 2560 nM and the IC50 (HGC-27) was 150 nM. The IC50 (HLE) was > 2560 nM, the IC50 (HT1197) was > 2560 nM and the IC50 (IMR-5) was > 2560 nM. For the same compound, the IC50 (KARPAS-422) was > 2560 nM, the IC50 (Kasumi 1) was 1410 nM and the IC50 (KMS-12-PE) was > 2560 nM. For the same compound, the IC50 (KOSC-2) was > 2560 nM, the IC50 (KYSE-520 cell line) was > 2560 nM and the IC50 (LN-405) was > 2560 nM. The IC50 (LP-1) was > 2560 nM, the IC50 (LoVo) was > 2560 nM and the IC50 (MC-CAR) was > 2560 nM. For the same compound, the IC50 (MDA-MB-415) was 1730 nM, the IC50 (NCCIT) was > 2560 nM and the IC50 (NCI-H1522) was > 2560 nM. The IC50 (NCI-H1623) was > 2560 nM, the IC50 (NCI-H1792) was > 2560 nM and the IC50 (NCI-H1793) was > 2560 nM. For the same compound, the IC50 (NCI-H1882) was > 2560 nM, the IC50 (NCI-H2087) was > 2560 nM and the IC50 (NCI-H2141) was > 2560 nM. For the same compound, the IC50 (NCI-H2452) was > 2560 nM, the IC50 (NCI-H345) was > 2560 nM and the IC50 (NCI-H716) was > 2560 nM. The IC50 (PANC-03-27) was > 2560 nM, the IC50 (RPMI-6666) was > 2560 nM and the IC50 (RT-112) was > 2560 nM. The IC50 (SIG-M5) was > 2560 nM, the IC50 (SIMA) was > 2560 nM and the IC50 (SJRH30) was > 2560 nM. The IC50 (SK-N-AS) was > 2560 nM, the IC50 (SN12C) was > 2560 nM and the IC50 (SNU-C1) was 2010 nM. For the same compound, the IC50 (SW1088) was > 2560 nM, the IC50 (SW13) was > 2560 nM and the IC50 (SW1463) was > 2560 nM. The IC50 (SW837) was > 2560 nM, the IC50 (SW948) was > 2560 nM and the IC50 (T84) was > 2560 nM. The IC50 5637 was > 2560 nM, the IC50 (639-V) was > 2560 nM and the IC50 (769-P) was > 2560 nM. The IC50 (786-0) was 1100 nM, the IC50 (8505C) was > 2560 nM and the IC50 (A-427) was > 2560 nM. The IC50 (ABC-1) was > 2560 nM, the IC50 (ARH-77) was > 2560 nM and the IC50 (BXPC-3) was 2220 nM. For the same compound, the IC50 (C-33-A) was > 2560 nM, the IC50 (CAL-27) was > 2560 nM and the IC50 (CAL-62) was > 2560 nM. The IC50 (THP-1) was > 2560 nM, the IC50 (UMC-11) was > 2560 nM and the IC50 (WM-115) was > 2560 nM. The IC50 (WSU-NHL) was > 2560 nM and the IC50 (CAPAN-1) was > 2560 nM.

Work on `Fc1cc(-c2cc[nH]/c(=N/c3ccc(-n4cnc(N5CCOCC5)n4)cc3)n2)cc(N2CCOCC2)c1` yielded an IC50 (CaR-1) of 1880 nM, an IC50 (D-392MG) of 1930 nM and an IC50 (DMS-273) of 105 nM. The IC50 (Daoy) was 865 nM, the IC50 (EFO-27) was 413 nM and the IC50 (FaDu) was 715 nM. The IC50 (GAMG) was 1340 nM, the IC50 (HCC1569) was 412 nM and the IC50 (HGC-27) was 284 nM. It also gave an IC50 (HLE) of 624 nM, an IC50 (HT1197) of 611 nM and an IC50 (IMR-5) of 2050 nM. It also gave an IC50 (KARPAS-422) of 406 nM, an IC50 (Kasumi 1) of 340 nM and an IC50 (KMS-12-PE) of 1160 nM. The IC50 (KOSC-2) was 531 nM, the IC50 (KYSE-520 cell line) was 448 nM and the IC50 (LN-405) was 991 nM. The IC50 (LP-1) was 483 nM, the IC50 (LoVo) was 437 nM and the IC50 (MC-CAR) was 380 nM. For the same compound, the IC50 (MDA-MB-415) was 1330 nM, the IC50 (NCCIT) was 398 nM and the IC50 (NCI-H1522) was 889 nM. For the same compound, the IC50 (NCI-H1623) was 1300 nM, the IC50 (NCI-H1792) was 2490 nM and the IC50 (NCI-H1793) was 1210 nM. The IC50 (NCI-H1882) was 1080 nM, the IC50 (NCI-H2087) was 341 nM and the IC50 (NCI-H2141) was > 5120 nM. It also gave an IC50 (NCI-H2452) of 1690 nM, an IC50 (NCI-H345) of 4540 nM and an IC50 (NCI-H716) of 3920 nM. The IC50 (PANC-03-27) was 271 nM, the IC50 (RPMI-6666) was 296 nM and the IC50 (RT-112) was 337 nM. It also gave an IC50 (SIG-M5) of 124 nM, an IC50 (SIMA) of 782 nM and an IC50 (SJRH30) of 349 nM. For the same compound, the IC50 (SK-N-AS) was 1210 nM, the IC50 (SN12C) was 1150 nM and the IC50 (SNU-C1) was 390 nM. The IC50 (SW1088) was > 5120 nM, the IC50 (SW13) was 1380 nM and the IC50 (SW1463) was 649 nM. It also gave an IC50 (SW837) of 2950 nM, an IC50 (SW948) of 835 nM and an IC50 (T84) of 1520 nM. The IC50 5637 was 5040 nM, the IC50 (639-V) was 220 nM and the IC50 (769-P) was 535 nM. For the same compound, the IC50 (786-0) was 228 nM, the IC50 (8505C) was 1260 nM and the IC50 (A-427) was 286 nM. It also gave an IC50 (ABC-1) of 889 nM, an IC50 (ARH-77) of 574 nM and an IC50 (BXPC-3) of 351 nM. It also gave an IC50 (C-33-A) of 253 nM, an IC50 (CAL-27) of 66 nM and an IC50 (CAL-62) of 893 nM. For the same compound, the IC50 (THP-1) was 1050 nM, the IC50 (UMC-11) was 179 nM and the IC50 (WM-115) was > 5120 nM. It also gave an IC50 (WSU-NHL) of 587 nM and an IC50 (CAPAN-1) of 394 nM.
